The source of these data is US11045435B2, “Methods for treating ocular diseases” (NATUREWISE BIOTECH & MEDICALS CORPORATION, priority 2016, dated 2021).

Each structure is given as a SMILES string.

Experiment [1] deals with Rabbit with Experimental Ocular Hypertension. Nature of the experiment: Ocular blood flow (colored microspheres) in rabbit with experimental ocular hypertension. It counts as in vivo, New Zealand white rabbits. The settings on record: 1% topical, 50 μl. The method, then: Rabbits were anesthetized with 35 mg/kg ketamine and 5 mg/kg Balanzine (10% xylazine) by intramuscular injection. Half of the initial dose was given every one hour thereafter. The left ventricle was cannulated through the right carotid artery for injection of colored microspheres and the femoral artery was cannulated for collection of blood samples. The left eye was treated with one drop of proparacaine hydrochloride ophthalmic solution (Bausch & Lomb, Inc., Tampa, Fla., USA). The needle was inserted directly into the anterior chamber of the left eye, which was connected to the 40 mmHg saline manometer. The ocular hypertensive model reduced the ocular blood flow to approximately one third of the normal valued. […] The ocular blood flow was measured by colored microspheres at 0, 30, 60 and 120 minutes after treatment with COMPOUND I or vehicle. […] The blood sample was collected in a heparinized tube and the volume was recorded. […]
The details of sample processing and microspheres counting were provided by E-Z Trac (Los Angeles, Calif., USA). […] The number of microspheres was counted by the hemocytometer under the microscope. […] The protocol thereafter was the same as that used to process the blood samples, and the microspheres were counted.
The blood flow of each tissue at a certain time point was calculated according to the following formula: Qm=(Cm×Qt)/Cr. […]

Experiment [2] relates to GFAP. The experiment is described as follows: GFAP levels in retina, Western Blot, streptozotocin-induced diabetic retinopathy. The experiment is classed as in vivo, Sprague-Dawley female rats. How it is done: After a 16-hour fasting, Sprague-Dawley female rats weighing 200-220 g received a single 60 mg/kg intraperitoneal injection of Streptozotocin (STZ; Sigma-Aldrich, St. Louis, Md.) in 10 mM sodium citrate buffer (pH 4.5; Sigma-Aldrich, St. Louis, Md.). Control rats were fasted and received the buffer solution alone. Rats with blood glucose levels higher than 375 mg/dL 7 days after receiving STZ were considered to be diabetic. Diabetic rats were treated with 1% COMPOUND I, 0.5% COMPOUND I or vehicle eye drops 3 time a day for 6 weeks.
After rats were sacrificed as described in last section, eyes were enucleated and bisected. Retinas were peeled from eyecups and immediately homogenized with 0.3 ml ice-cold lysis buffer ([…]; Sigma-Aldrich, St. Louis, Mo.), including 1 μl proteinase inhibitor cocktail ([…]; Sigma-Aldrich, St. Louis, Mo.). The insoluble material was removed by centrifugation at 12,000 g for 20 minutes. Final protein concentrations were determined using a protein assay kit (BCA, Santa Cruz Biotechnology, Santa Cruz, Calif.) according to manufacturer's specifications. The homogenate (80 μg) were separated by NuPAGE Bis-Tris Mini Gels (Invitrogen Life Technologies, Grand Island, N.Y.) and transferred to nitrocellulose membranes by iBlot Gel transfer Device (Invitrogen Life Technologies, Grand Island, N.Y.). The nitrocellulose membranes were treated by BenchPro 4100 Card Processing Station (Invitrogen Life Technologies, Grand Island, N.Y.) according to the instruction of WesternBreeze® Chromogenic Kit-Anti-Rabbit (Invitrogen Life Technologies, Grand Island, N.Y.). The primary antibodies used were anti-GFAP (1:200, Santa Cruz Biotechnology, Santa Cruz, Calif.) and glycealdehyde-3-phosphate dehydrogenase (GAPDH) (1:100), respectively. The Anti-rabbit IgG, AP-linked antibody was used as a second antibody. For quantitative evaluation of the western blot studies, the nitrocellulose membranes were scanned and the optical densities were quantified with analysis software (Pro-gel Analyzer software, Media Cybernetics, Rockville, Md.).
On the technique in general: Immunoblotting shows a protein as a band on a membrane.

The test system of experiment [3] is ARPE-19 cells. Nature of the experiment: Hypoxia-induced injury in ARPE-19 cells (MTT). It counts as cell-based, human. The settings on record: 72 h. The method, then: MTT assay was used to measure the viability of ARPE-19 cells and HUVECs. 2×10^5 ARPE-19 cells or 5×10^4 HUVECs were seeded in 96-well plates ([…]) and allowed to grow overnight. Negative control was prepared by adding 100 μl medium without cells. The cells were then treated with fresh medium with COMPOUND I (0.03, 0.1, 0.3, 1, 3 and 10 μg/ml) and/or oxidants (NaIO3, H2O2, t-BHP and NaN3) for 12, 24, or 72 hours (200 μl/well). The vehicle control group was treated with vehicle. 20 μl MTT (5 mg/ml) was added to wells, and incubated for another 4 h. After incubation, the medium was discarded and 100 μl DMSO was added to solubilize formazan produced from MTT by the viable cells. Absorbance was measured at 570 nm using a microplate reader (Bio-Rad Laboratories, Inc., CA). Cells viability was calculated according to the following formula: Viability of cells (%)=(absorbance in tested sample−absorbance in negative control)/(absorbance in vehicle control−absorbance in negative control)×100%.
Cells were allowed to attach overnight, and then exposed to COMPOUND I or vehicle under hypoxic condition for 72 h. Hypoxic conditions (1% O2, 5% CO2 and 94% N2) were maintained by using a temperature and humidity controlled environmental C-chamber by O2 and CO2 controllers (Proox Model 110 and Pro CO2 model 120, Biospherix Ltd., Redfield, N.Y., USA) with N2 and CO2 gas sources.

`COc1ccc(COc2c(/C=C/C(=O)NO)ccc(OC)c2CC=C(C)C)cc1` [COMPOUND I]: the “blood flow in ciliary body and choroid” value in experiment [1] (30 minutes and 60 minutes after instillation) is on record as “markedly increased”. Also, the “blood flow in all tissues (iris, ciliary body, retina, choroid)” value in experiment [1] (120 minutes after instillation) was “significantly increased”. The “GFAP level (Western Blot), DR animals as 100%” value in experiment [2] (0.5% eye drops tid 6 weeks) was determined as 70%. In experiment [2] (1% and 0.5% tid. for 6 weeks), the “expression of GFAP proteins in retina vs diabetic control, in words” value is recorded as “significantly suppressed”. In experiment [2] (1.0% eye drops tid 6 weeks), the “GFAP level (Western Blot), DR rats as 100%” value is given as 46%. The “effect on cells in hypoxic condition” value in experiment [3] (0.03 μg/ml to 10 μg/ml except 3 μg/ml) was “had no effect”. Further, the “increase of viability in hypoxic condition” value in experiment [3] (3 μg/ml, 1% O2) was found to be 22%.
